≈ marks a conversion by molar mass, not a printed value.
What was measured:
[1] = system: RPMI8226 (multiple myeloma); assay: MTT multiple myeloma cell growth inhibition, 72 h; format: cell-based, human; details: Homo sapiens, RPMI-8226, RPMI8226, 72 h; for IC50: read-out: IC50; for IC90: read-out: IC90
Procedure: Multiple myeloma and lymphoma cell lines: RPMI8226 (multiple myeloma), purchased from Fuxiang Bio-tech Co. Ltd., Shanghai, China.
(§1) Obtaining 6000 well-growing leukemia cells and inoculating them into wells of a 96-well cell culture plate. The culture medium is the 1640 cell culture medium containing 10% fetal bovine serum. After adding the homoharringtonine derivatives of different concentrations and mixing uniformly, placing the plate in a carbon dioxide cell incubator (5% CO2) at 37° C. and incubating for 72 hours. Then the viable cell concentration is determined by the MTT method.

[2] = system: PANC-1 (pancreatic cancer); assay: MTT solid tumor cell growth inhibition, 72 h; format: cell-based, human; details: Homo sapiens, PANC-1, 72 h; for IC50: read-out: IC50; for IC90: read-out: IC90
Procedure: (§2) Human solid tumor cell lines: Hep-2 ([…]), A549 (human lung cancer), CaES-17 (esophageal cancer cell), PC-3 (prostate cancer), CNE (nasopharyngeal carcinoma cell), and SK-OV-3 (ovarian cancer cell), all of which are purchased from China Center For Type Culture Collection; RKO (human colon adenocarcinoma cell), MGC 803 (human gastric cancer cell), MG63 (osteosarcoma) and U87 MG (malignant glioma cell), all of which are purchased from Fuxiang Bio-tech Co. Ltd., Shanghai, China; PANC-1 (pancreatic cancer), Huh7 (human liver cancer cell), Becap37 (human breast cancer cell), and Hela (human cervical cancer cell), all of which are donated by Cancer Research Institute of Zhejiang University, China.
(§3) Obtaining 4000 well-growing human solid tumor cells and inoculating them into wells of a 96-well cell culture plate. The culture medium is DMEM High Glucose cell culture medium containing 10% fetal bovine serum. The plate is placed in a carbon dioxide cell incubator (5% CO2) at 37° C. and incubating for 24 hours. After adding the homoharringtonine derivatives of different concentration and mixing uniformly, the plate is placed in a carbon dioxide cell incubator (5% CO2) at 37° C. and incubating for 72 hours. Then the viable cell concentration is determined by the MTT method and the cell viability (%) after drug treatment is calculated. In this experiment, the cell viability of control group (not treated with any compound) is set as 100%.

MG63 (osteosarcoma) = assay: MTT solid tumor cell growth inhibition, 72 h; format: cell-based, human; details: Homo sapiens, MG 63, 72 h; for IC50: read-out: IC50; for IC90: read-out: IC90
Procedure: as §2, §3

[3] = system: Huh7 (human liver cancer cell); assay: MTT solid tumor cell growth inhibition, 72 h; format: cell-based; details: Homo sapiens, Huh-7, Huh7, 72 h; for IC50: read-out: IC50; for IC90: read-out: IC90
Procedure: as §2, §3

A549 (human lung cancer) = assay: MTT solid tumor cell growth inhibition, 72 h; format: cell-based; details: Homo sapiens, A549, 72 h; for IC50: read-out: IC50; for IC90: read-out: IC90
Procedure: as §2, §3

[4] = system: Becap37 (human breast cancer cell); assay: MTT solid tumor cell growth inhibition, 72 h; format: cell-based; details: Homo sapiens, Becap37, 72 h; for IC50: read-out: IC50; for IC90: read-out: IC90
Procedure: as §2, §3

[5] = system: Jurkat (acute lymphoblastic leukemia, ALL); assay: MTT leukemia cell growth inhibition, 72 h; format: cell-based, human; details: Homo sapiens; for IC50: read-out: IC50; for IC90: read-out: IC90
Excerpt: (§4) Leukemia cell lines: K562/adr (drug-resistant, chronic myeloid leukemia, CML), NB4 (acute promyelocytic leukemia, AML), Kasumi-1 (acute myeloid leukemia M2 type, AML-M2), Jurkat (acute lymphoblastic leukemia, ALL), all of which are donated by Cancer Research Institute of Zhejiang University, China; and H9 (acute lymphoblastic leukemia, ALL), which is purchased from China Center for Type Culture Collection.
as §1, with “method. In this experiment, the cell viability in control group (not treated with any compound) is set as 100%.” for “method.”

[6] = system: Kasumi-1 (acute myeloid leukemia M2 type, AML-M2); assay: MTT leukemia cell growth inhibition, 72 h; format: cell-based, human; details: Homo sapiens, Kasumi-1, 72 h; for IC50: read-out: IC50; for IC90: read-out: IC90
Excerpt: as §4
as §1, with “method. In this experiment, the cell viability in control group (not treated with any compound) is set as 100%.” for “method.”

[7] = system: H9 (acute lymphoblastic leukemia, ALL); assay: MTT leukemia cell growth inhibition, 72 h; format: cell-based, human; details: Homo sapiens, H9, 72 h; for IC50: read-out: IC50; for IC90: read-out: IC90
Excerpt: as §4
as §1, with “method. In this experiment, the cell viability in control group (not treated with any compound) is set as 100%.” for “method.”

[8] = system: NB4 (acute promyelocytic leukemia, AML); assay: MTT leukemia cell growth inhibition, 72 h; format: cell-based, human; details: Homo sapiens, NB4, 72 h; for IC50: read-out: IC50; for IC90: read-out: IC90
Excerpt: as §4
as §1, with “method. In this experiment, the cell viability in control group (not treated with any compound) is set as 100%.” for “method.”

[9] = system: K562/adr (drug-resistant, chronic myeloid leukemia, CML); assay: MTT leukemia cell growth inhibition, 72 h; format: cell-based, human; details: Homo sapiens, K562/Adr; for IC50: read-out: IC50; for IC90: read-out: IC90
Excerpt: as §4
as §1, with “method. In this experiment, the cell viability in control group (not treated with any compound) is set as 100%.” for “method.”

[10] = system: MGC 803 (human gastric cancer cell); assay: MTT solid tumor cell growth inhibition, 72 h; format: cell-based; details: Homo sapiens, MGC 803, 72 h; for IC50: read-out: IC50; for IC90: read-out: IC90
Procedure: as §2, §3

Row | Compound | IC50 [1] | IC90 [1] | IC50 [2] | IC90 [2] | IC50 (MG63 (osteosarcoma)) | IC90 (MG63 (osteosarcoma)) | IC50 [3] | IC90 [3] | IC50 (A549 (human lung cancer)) | IC90 (A549 (human lung cancer)) | IC50 [4] | IC90 [4] | IC50 [5] | IC90 [5] | IC50 [6] | IC90 [6] | IC50 [7] | IC90 [7] | IC50 [8] | IC90 [8] | other results
1 | COC1=C[C@]23CCCN2CCc2cc4c(cc2[C@@H]3[C@@H]1OC(=O)[C@@](O)(CCCC(C)(C)O)CC(=O)N1CCCC(C)C1)OCO4 (stereo partly shown) [BS-HH-038] | 1.22 µg/mL (≈ 1.99 µM) | 16 µg/mL (≈ 26.1 µM) | 8.83 µg/mL (≈ 14.4 µM) | > 16 µg/mL | 3.71 µg/mL (≈ 6.05 µM) | > 16 µg/mL | 16 µg/mL (≈ 26.1 µM) | > 16 µg/mL | 5.72 µg/mL (≈ 9.33 µM) | > 16 µg/mL | 1.95 µg/mL (≈ 3.18 µM) | > 16 µg/mL | 1.47 µg/mL (≈ 2.4 µM) | 16 µg/mL (≈ 26.1 µM) | 2 µg/mL (≈ 3.26 µM) | 12 µg/mL (≈ 19.6 µM) | 7.37 µg/mL (≈ 12 µM) | > 16 µg/mL | 0.32 µg/mL (≈ 0.522 µM) | 4.24 µg/mL (≈ 6.92 µM) | IC50 [9]: > 16 µg/mL; IC90 [9]: > 16 µg/mL
2 | CCN1CCN(C(=O)C[C@](O)(CCCC(C)(C)O)C(=O)O[C@@H]2C(OC)=C[C@]34CCCN3CCc3cc5c(cc3[C@H]24)OCO5)CC1 [BS-HH-041] | 1.96 µg/mL (≈ 3.12 µM) | 13.4 µg/mL (≈ 21.3 µM) | 6.35 µg/mL (≈ 10.1 µM) | > 16 µg/mL | 1.97 µg/mL (≈ 3.14 µM) | > 16 µg/mL | 16 µg/mL (≈ 25.5 µM) | > 16 µg/mL | 8.11 µg/mL (≈ 12.9 µM) | > 16 µg/mL | 0.9 µg/mL (≈ 1.43 µM) | > 16 µg/mL | 0.89 µg/mL (≈ 1.42 µM) | > 16 µg/mL | 2.79 µg/mL (≈ 4.44 µM) | 15 µg/mL (≈ 23.9 µM) | 3.2 µg/mL (≈ 5.1 µM) | > 16 µg/mL | 1.85 µg/mL (≈ 2.95 µM) | 16 µg/mL (≈ 25.5 µM) | IC50 [10]: 1 µg/mL (≈ 1.59 µM); IC90 [10]: 11.8 µg/mL (≈ 18.9 µM); IC50 [9]: > 16 µg/mL; IC90 [9]: > 16 µg/mL
3 | COC1=C[C@]23CCCN2CCc2cc4c(cc2[C@@H]3[C@@H]1OC(=O)[C@@](O)(CCCC(C)(C)O)CC(=O)NCc1ccco1)OCO4 [BS-HH-043] | > 16 µg/mL | > 16 µg/mL | > 16 µg/mL | > 16 µg/mL | > 16 µg/mL | > 16 µg/mL | > 16 µg/mL | > 16 µg/mL | > 16 µg/mL | > 16 µg/mL | > 16 µg/mL | > 16 µg/mL | 13 µg/mL (≈ 21.3 µM) | > 16 µg/mL | 11.1 µg/mL (≈ 18.1 µM) | > 16 µg/mL | > 16 µg/mL | > 16 µg/mL | 15 µg/mL (≈ 24.6 µM) | > 16 µg/mL | IC50 [10]: > 16 µg/mL; IC90 [10]: > 16 µg/mL; IC50 [9]: > 16 µg/mL; IC90 [9]: > 16 µg/mL
4 | COC1=C[C@]23CCCN2CCc2cc4c(cc2[C@@H]3[C@@H]1OC(=O)[C@@](O)(CCCC(C)(C)O)CC(=O)N1CCCCC1)OCO4 [BS-HH-051] | 1.7 µg/mL (≈ 2.84 µM) | 16 µg/mL (≈ 26.7 µM) | 6.84 µg/mL (≈ 11.4 µM) | > 16 µg/mL | 2.72 µg/mL (≈ 4.54 µM) | > 16 µg/mL | > 16 µg/mL | > 16 µg/mL | 6.96 µg/mL (≈ 11.6 µM) | > 16 µg/mL | 1.99 µg/mL (≈ 3.32 µM) | > 16 µg/mL | 1.3 µg/mL (≈ 2.17 µM) | > 16 µg/mL | 2 µg/mL (≈ 3.34 µM) | 16 µg/mL (≈ 26.7 µM) | 7.26 µg/mL (≈ 12.1 µM) | > 16 µg/mL | 1.5 µg/mL (≈ 2.51 µM) | 16 µg/mL (≈ 26.7 µM) | IC50 [10]: 1.9 µg/mL (≈ 3.17 µM); IC90 [10]: 26.7 µg/mL (≈ 44.6 µM); IC50 [9]: > 16 µg/mL; IC90 [9]: > 16 µg/mL

— patent US9676789B2, “Aminated derivative of homoharringtonine, preparation method therefor, and application thereof” (HANGZHOU BENSHENG PHARMACEUTICAL CO., LTD., priority 2011, dated 2017)
